What was measured:
Format in all cases: in vivo
[1] = system: sedge, umbrella (small-flower umbrella sedge, Cyperus difformis); assay: Test B flooded paddy test, visual plant response rating 0-100; details: 250 g ai/ha, Flood, applied to paddy water, evaluated after 13 days
Method in brief: (§1)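 Visual evaluation after 13 days. Water-applied treatment, 3 cm flood depth held constant, plants at 2-leaf stage at treatment.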

[2] = system: ducksalad (Heteranthera limosa); assay: as above; details: 250 g ai/ha, Flood, applied to paddy water, evaluated after 13 days
Method in brief: as §1

rice (Oryza sativa) = assay: as above; details: 250 g ai/ha, Flood, applied to paddy water, evaluated after 13 days
Method in brief: as §1

[3] = system: barnyardgrass (Echinochloa crusgalli); assay: as above; details: 250 g ai/ha, Flood, applied to paddy water, evaluated after 13 days
Method in brief: as §1

[4] = system: palmer (palmer amaranth, palmer pigweed, Amaranthus palmeri); assay: Test A postemergence application, visual injury rating 0-100; details: Postemergence, 10 days, 0 is no effect, 100 is complete control
Method in brief: (§2)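 Compound in a non-phytotoxic, surfactant-containing solvent is applied either as a directed soil spray before seedlings emerge or onto emerged plants 2-10 cm tall; pots hold a loam-sand blend. Plants grow 10 days under greenhouse conditions and are rated by eye against untreated controls (0 no effect, 100 complete control).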

[5] = system: galium (catchweed bedstraw, Galium aparine); assay: as above; details: Postemergence, 10 days, 0 is no effect, 100 is complete control
Method in brief: as §2

[6] = system: green foxtail (Setaria viridis); assay: as above; details: Postemergence, 10 days, 0 is no effect, 100 is complete control
Method in brief: as §2

soybean (Glycine max) [7] = assay: as above; details: Postemergence, 10 days, 0 is no effect, 100 is complete control
Method in brief: as §2

[8] = system: wheat (Triticum aestivum); assay: as above; details: Postemergence, 10 days, 0 is no effect, 100 is complete control
Method in brief: as §2

corn (Zea mays) [9] = assay: as above; details: Postemergence, 10 days, 0 is no effect, 100 is complete control
Method in brief: as §2

[10] = system: horseweed (Erigeron canadensis); assay: as above; details: Postemergence, 10 days, 0 is no effect, 100 is complete control
Method in brief: as §2

[11] = system: ragweed (common ragweed, Ambrosia artemisiifolia); assay: as above; details: Postemergence, 10 days, 0 is no effect, 100 is complete control
Method in brief: as §2

[12] = system: barnyardgrass (Echinochloa crus-galli); assay: as above; details: Postemergence, 10 days, 0 is no effect, 100 is complete control
Method in brief: as §2

[13] = system: oat, wild (wild oat, Avena fatua); assay: as above; details: Postemergence, 10 days, 0 is no effect, 100 is complete control
Method in brief: as §2

[14] = system: ryegrass, Italian (italian ryegrass, Lolium multiflorum); assay: as above; details: Postemergence, 10 days, 0 is no effect, 100 is complete control
Method in brief: as §2

[15] = system: blackgrass (Alopecurus myosuroides); assay: as above; details: Postemergence, 10 days, 0 is no effect, 100 is complete control
Method in brief: as §2

kochia (Bassia scoparia) [16] = assay: as above; details: Postemergence, 10 days, 0 is no effect, 100 is complete control
Method in brief: as §2

[17] = system: palmer (palmer amaranth, palmer pigweed, Amaranthus palmeri); assay: Test A preemergence soil spray, visual injury rating 0-100; details: 10 days, 0 = no effect, 100 = complete control
Method in brief: as §2

[18] = system: green foxtail (Setaria viridis); assay: as above; details: 10 days, 0 = no effect, 100 = complete control
Method in brief: as §2

soybean (Glycine max) [19] = assay: as above; details: 10 days, 0 = no effect, 100 = complete control
Method in brief: as §2

[20] = system: wheat (Triticum aestivum); assay: as above; details: 10 days, 0 = no effect, 100 = complete control
Method in brief: as §2

corn (Zea mays) [21] = assay: as above; details: 10 days, 0 = no effect, 100 = complete control
Method in brief: as §2

[22] = system: ragweed (common ragweed, Ambrosia artemisiifolia); assay: as above; details: 10 days, 0 = no effect, 100 = complete control
Method in brief: as §2

[23] = system: barnyardgrass (Echinochloa crus-galli); assay: as above; details: 10 days, 0 = no effect, 100 = complete control
Method in brief: as §2

[24] = system: oat, wild (wild oat, Avena fatua); assay: as above; details: 10 days, 0 = no effect, 100 = complete control
Method in brief: as §2

[25] = system: ryegrass, Italian (italian ryegrass, Lolium multiflorum); assay: as above; details: 10 days, 0 = no effect, 100 = complete control
Method in brief: as §2

[26] = system: blackgrass (Alopecurus myosuroides); assay: as above; details: 10 days, 0 = no effect, 100 = complete control
Method in brief: as §2

kochia (Bassia scoparia) [27] = assay: as above; details: 10 days, 0 = no effect, 100 = complete control
Method in brief: as §2

`CC1(C(=O)NC2C=CC(C(=O)OCCS(C)(=O)=O)C2)CN(c2cc(Cl)cc(Cl)c2)C(=O)O1` (stereo not shown) [Compound 46] was tested, and the “Plant response rating, Sedge, Umbrella (0 to 100 scale, 0 is no effect and 100 is complete control)” value [1] was 95, the “Plant response rating, Ducksalad (0 to 100 scale, 0 is no effect and 100 is complete control)” value [2] was 90 and the “Plant response rating, Rice (0 to 100 scale, 0 is no effect and 100 is complete control)” value (rice (Oryza sativa)) was 10. For the same molecule, the “Plant response rating, Barnyardgrass (0 to 100 scale, 0 is no effect and 100 is complete control)” value [3] was 70, the “Amaranth, Palmer / Pigweed, Palmer plant response rating (0 to 100 scale)” value ([4]; 125 g ai/ha) was 90 and the “Amaranth, Palmer / Pigweed, Palmer plant response rating (0 to 100 scale)” value ([4]; 500 g ai/ha) was 90. The “Galium plant response rating (0 to 100 scale)” value ([5]; 125 g ai/ha) was 80, the “Galium plant response rating (0 to 100 scale)” value ([5]; 500 g ai/ha) was 70 and the “Foxtail, Green plant response rating (0 to 100 scale)” value (from here on “Foxtail, Green plant response rating”) ([6]; 125 g ai/ha) was 80. For the same molecule, the “Foxtail, Green plant response rating” value ([6]; 500 g ai/ha) was 90, the “Soybean plant response rating (0 to 100 scale)” value (“Soybean plant response rating” for short) (soybean (Glycine max) [7]; 125 g ai/ha) was 80 and the “Soybean plant response rating” value (soybean (Glycine max) [7]; 500 g ai/ha) was 90. For the same molecule, the “Wheat plant response rating (0 to 100 scale)” value (from here on “Wheat plant response rating”) ([8]; 125 g ai/ha) was 90, the “Wheat plant response rating” value ([8]; 500 g ai/ha) was 90 and the “Corn plant response rating (0 to 100 scale)” value (“Corn plant response rating” below) (corn (Zea mays) [9]; 125 g ai/ha) was 100. The “Corn plant response rating” value (corn (Zea mays) [9]; 500 g ai/ha) was 100, the “Horseweed plant response rating (0 to 100 scale)” value ([10]; 125 g ai/ha) was 80 and the “Horseweed plant response rating (0 to 100 scale)” value ([10]; 500 g ai/ha) was 80. The “Ragweed plant response rating (0 to 100 scale)” value (from here on “Ragweed plant response rating”) ([11]; 125 g ai/ha) was 60, the “Ragweed plant response rating” value ([11]; 500 g ai/ha) was 80 and the “Barnyardgrass plant response rating (0 to 100 scale)” value (from here on “Barnyardgrass plant response rating”) ([12]; 125 g ai/ha) was 100. For the same molecule, the “Barnyardgrass plant response rating” value ([12]; 500 g ai/ha) was 100, the “Oat, Wild plant response rating (0 to 100 scale)” value (“Oat, Wild plant response rating” below) ([13]; 125 g ai/ha) was 80 and the “Oat, Wild plant response rating” value ([13]; 500 g ai/ha) was 90. The “Ryegrass, Italian plant response rating (0 to 100 scale)” value (shortened to “Ryegrass, Italian plant response rating”) ([14]; 125 g ai/ha) was 70, the “Ryegrass, Italian plant response rating” value ([14]; 500 g ai/ha) was 70 and the “Blackgrass plant response rating (0 to 100 scale)” value (“Blackgrass plant response rating” for short) ([15]; 125 g ai/ha) was 100. For the same molecule, the “Blackgrass plant response rating” value ([15]; 500 g ai/ha) was 100, the “Kochia plant response rating (0 to 100 scale)” value (“Kochia plant response rating” for short) (kochia (Bassia scoparia) [16]; 125 g ai/ha) was 80 and the “Kochia plant response rating” value (kochia (Bassia scoparia) [16]; 500 g ai/ha) was 80. For the same molecule, the “Amaranth, Palmer plant response rating (0 to 100 scale)” value ([17]; 125 g ai/ha) was 80, the “Amaranth, Palmer plant response rating (0 to 100 scale)” value ([17]; 500 g ai/ha) was 100 and the “Foxtail, Green plant response rating” value ([18]; 125 g ai/ha) was 0. For the same molecule, the “Foxtail, Green plant response rating” value ([18]; 500 g ai/ha) was 0, the “Soybean plant response rating” value (soybean (Glycine max) [19]; 125 g ai/ha) was 10 and the “Soybean plant response rating” value (soybean (Glycine max) [19]; 500 g ai/ha) was 60. For the same molecule, the “Wheat plant response rating” value ([20]; 125 g ai/ha) was 70, the “Wheat plant response rating” value ([20]; 500 g ai/ha) was 90 and the “Corn plant response rating” value (corn (Zea mays) [21]; 125 g ai/ha) was 0. The “Corn plant response rating” value (corn (Zea mays) [21]; 500 g ai/ha) was 90, the “Ragweed plant response rating” value ([22]; 125 g ai/ha) was 30 and the “Ragweed plant response rating” value ([22]; 500 g ai/ha) was 70. For the same molecule, the “Barnyardgrass plant response rating” value ([23]; 125 g ai/ha) was 80, the “Barnyardgrass plant response rating” value ([23]; 500 g ai/ha) was 100 and the “Oat, Wild plant response rating” value ([24]; 125 g ai/ha) was 70. The “Oat, Wild plant response rating” value ([24]; 500 g ai/ha) was 90, the “Ryegrass, Italian plant response rating” value ([25]; 125 g ai/ha) was 80 and the “Ryegrass, Italian plant response rating” value ([25]; 500 g ai/ha) was 90. For the same molecule, the “Blackgrass plant response rating” value ([26]; 125 g ai/ha) was 80, the “Blackgrass plant response rating” value ([26]; 500 g ai/ha) was 90 and the “Kochia plant response rating” value (kochia (Bassia scoparia) [27]; 125 g ai/ha) was 60. The “Kochia plant response rating” value (kochia (Bassia scoparia) [27]; 500 g ai/ha) was 90.

— patent publication US20260285850A1, “SUBSTITUTED OXAZOLIDINONES AND IMIDAZOLINONES AS HERBICIDES” (FMC CORPORATION, priority 2023, published 2026)
